Test results: patent publication US10953107B2, “Polypeptide compositions and methods for site-specific targeting of therapeutic agents” (Trustees of Boston University, priority 2018, dated 2021)
Where two headings read alike, the source gives them in different places.

How the values were obtained:
[1] = first value of 'x vs. y', second value is an unnamed comparator arm, cited from earlier work; for OS: overall survival; for PFS: progression-free survival
Panc1 Cells [2] = experiment: ADC cytotoxicity, MTT cell viability assay; format: cell-based, human
MIA PaCa2 = experiment: ADC cytotoxicity, MTT cell viability assay; format: cell-based, human
Procedure: (§1) Cell viability was assessed by an MTT assay in Panc1 cells and other cell lines at 72 hours post-treatment with increasing concentrations of the ADC and relevant controls. The assay confluence was 20% at the start and up to 60% confluence.
(§2) Cell viability was assessed by an MTT assay in other pancreatic cancer cell lines.
(§3) Cell viability was assessed by an MTT assay in pancreatic cancer cell lines at 72 hours post-treatment with increasing concentrations of the ADC and relevant controls.

BxPC-3 = experiment: ADC cytotoxicity, MTT cell viability assay; format: cell-based
Procedure: as §1, §2, §3

KV2 cells = experiment: ADC cytotoxicity in normal cell lines, MTT assay; conditions: read-out: IC50 / cytotoxicity
Procedure: (§4) Cell viability was assessed by an MTT assay in KV2 cells and other normal cell lines at 72 hours post-treatment with increasing concentrations of the ADC and relevant controls.
(§5) Cell viability was assessed by an MTT assay in normal cell lines at 72 hours post-treatment with increasing concentrations of the ADC and relevant controls.

BJ fibroblasts = experiment: ADC cytotoxicity in normal cell lines, MTT assay
Procedure: as §4, §5

HUVECs = experiment: ADC cytotoxicity in normal cell lines, MTT assay; conditions: read-out: IC50 / cytotoxicity; HUVEC, additional characterization (FIG. 41)
Procedure: as §4, §5

mIMCD = experiment: ADC cytotoxicity in normal cell lines, MTT assay
Procedure: as §4, §5

Panc1 Cells [3] = experiment: Cell viability in response to increasing doses of mertansine (FIG. 19); format: cell-based, human; conditions: cell viability (FIG. 19)
Procedure: (§6) Cell viability was measured in response to increasing doses of mertansine in Panc1 and MIA PaCa2 cell lines to determine the IC50 compared to other chemotherapeutic agents (gemcitabine and Nab-paclitaxel) (FIG. 19). Panc1 cells are a human pancreatic cancer cell line isolated from a pancreatic carcinoma of ductal cell origin. MIA PaCa-2 cells are another type of pancreatic cancer cell line that was derived from the carcinoma of a patient.

MIA PaCa2 Cells = experiment: as above; format: cell-based, human; conditions: cell viability (FIG. 19)
Procedure: as §6

H6c7 = experiment: ADC cytotoxicity in normal cell lines, MTT assay; format: cell-based; conditions: H6c7, additional characterization (FIG. 41)
Capan-1 = experiment: ADC cytotoxicity, MTT cell viability assay; format: cell-based, human
Procedure: as §1, §2, §3

[4] = Circular dichroism (CD): specificity and structural assembly of peptides; format: physicochemical; conditions: circular dichroism (FIG. 2A, FIG. 14A)
Excerpt: We designed and prepared peptide sequences that form a tetrameric coiled coil,^14,15 but discourage self-interaction (positively charged amino acids in docking, negatively charged in receiving).

[5] = read-out: IC50 / cytotoxicity, MTT (FIG. 32), NS = not significantly different from 100% viability of control
[6] = read-out: IC50 / cytotoxicity, additional characterization (FIG. 41)

C#Cc1cccc(Nc2ncnc3cc(OCCOC)c(OCCOC)cc23)c1 [Erlotinib]
OS [1]: 6.2 vs. 5.9 mo
PFS [1]: 3.8 vs. 3.6 mo

Nc1ccn([C@@H]2O[C@H](CO)[C@@H](O)C2(F)F)c(=O)n1 [Gemcitabine]
IC50 (Panc1 Cells [2]; Homo sapiens, PANC-1, Panc1, MTT, 72 hours (FIG. 28)): 700 nM
IC50 (MIA PaCa2; Homo sapiens, MIA PaCa-2, MIA PaCa2, MTT (FIG. 29-30)): 256 nM

COc1cc2cc(c1Cl)N(C)C(=O)C[C@H](OC(=O)[C@H](C)N(C)C(=O)CCS)[C@]1(C)O[C@H]1[C@H](C)[C@@H]1C[C@@](O)(NC(=O)O1)[C@H](OC)/C=C/C=C(\C)C2 [Mertansine, mertansine]
IC50 (BxPC-3; BxPC-3, MTT (FIG. 30)): 18.8 nM
IC50 (BxPC-3; BxPC-3, additional characterization (FIG. 39)): 18.8 nM
IC50 (Panc1 Cells [2]; Panc1, MTT, 72 hours (FIG. 28-30)): 1.98 nM
IC50 (Panc1 Cells [2]; Panc1, additional characterization (FIG. 39)): 1.98 nM
IC50 (KV2 cells; KV2, additional characterization (FIG. 41)): 289 nM
IC50 (KV2 cells; KV-2, MTT, 72 hours (FIG. 31-32), NS = not significantly different from 100% viability of control): 95.5 nM
IC50 (BJ fibroblasts; [5]): 16.8 nM
IC50 (BJ fibroblasts; [6]): 16.8 nM
IC50 (HUVECs): 2.7 nM
IC50 (mIMCD; [5]): 3 nM
IC50 (mIMCD; [6]): 3 nM
IC50 (Panc1 Cells [3]): 1.19 nM
IC50 (MIA PaCa2 Cells): 0.268 nM
IC50 (H6c7): 2.4 nM
IC50 (MIA PaCa2; MIA PaCa2, MTT (FIG. 29-30)): 0.31 nM
IC50 (MIA PaCa2; MIA PaCa2, additional characterization (FIG. 39)): 0.31 nM
IC50 (Capan-1; Capan-1, MTT (FIG. 30)): 22.1 nM
IC50 (Capan-1; Capan-1, additional characterization (FIG. 39)): 22.1 nM

Cixutumumab
OS [1]: 7.0 vs. 6.7 mo
PFS [1]: 3.6 vs 3.6 mo

MK(LEEIVSE)2LEEIVTELEEIVSEVGER (MKLEEIVSELEEIVSELEEIVTELEEIVSEVGER) [Peptide V/E, acidic V/E-type docking peptide]
self-assembly / coiled coil formation [4]: do not self-assemble

MK(LKKIKSV)4VGER [Peptide V/K]
self-assembly / coiled coil formation [4]: do not self-assemble

Nimotuzumab
OS [1]: 8.6 vs. 6.0 mo
PFS [1]: 5.3 vs. 3.6 mo
